This is an account of results in PMC12647645, “Structural interactions of BWC0977 with Klebsiella pneumoniae topoisomerase IV and biochemical basis of its broad-spectrum activity” (Communications Biology, 2025).

Assay [1] concerns E. coli MG1655 (GyrA WT, ParC WT). The experiment in a line: microbe, parasite or virus in culture. The following applies: Escherichia coli. It is filed as cell-based.
Assay [2] deals with E. coli MG1655 GyrA D82N, ParC WT. The experiment in a line: microbe, parasite or virus in culture. Format: cell-based. The following applies: Escherichia coli.
For assay [3], the system named is E. coli MG1655 GyrA WT, ParC D79N. The experiment in a line: microbe, parasite or virus in culture. Format: cell-based. The following applies: Escherichia coli.
Assay [4] deals with E. coli MG1655 GyrA D82N, ParC D79N. The experiment in a line: microbe, parasite or virus in culture. Format: cell-based. The following applies: Escherichia coli.
The test system of assay [5] is E. coli MG1655 GyrA M120A, ParC M118A. The experiment in a line: microbe, parasite or virus in culture. Format: cell-based. The following applies: Escherichia coli.
The subject of assay [6] is E. coli MG1655 GyrA R121K, ParC WT. The experiment in a line: microbe, parasite or virus in culture. The following applies: Escherichia coli. It is filed as cell-based.
The subject of assay [7] is E. coli MG1655 GyrA WT, ParC R119K. The experiment in a line: microbe, parasite or virus in culture. It is filed as cell-based. The following applies: Escherichia coli.
Assay [8] concerns the target T1, E. coli gyrase (Escherichia coli, UniProt P0AES4+P0AES6).
T1 construct: purchased Inspiralis
The experiment in a line: biochemical. It is filed as biochemical.

Assay [9] has as its target T2, E. coli topoisomerase IV (Escherichia coli, UniProt P0AFI2+P20083).
T2 construct: purchased Inspiralis
The experiment in a line: biochemical. The following applies: read-out: IC50 E. coli topo IV decatenation. Format: biochemical.

In assay [10] the test system is A. baumannii ATCC 19606. The experiment in a line: MIC broth microdilution. It is filed as cell-based. The following applies: Acinetobacter baumannii. In general terms: Dilution methods test growth across graded concentrations, often in twofold steps.
Assay [11] has as its system A. baumannii ATCC 19606 resistant mutant colonies (mutant 1-5). The experiment in a line: microbe, parasite or virus in culture. It is filed as cell-based. The following applies: Acinetobacter baumannii.
Assay [12] has as its target Human topo IIα (Homo sapiens, UniProt P11388). The experiment in a line: Human topo IIα decatenation assay. Format: biochemical. As for the experimental part:
(§1) Human topo IIα (0.9 nM) and topo IIß (2.2 nM) decatenation assays were performed following the same protocol used for bacterial topoisomerase IV decatenation assays. The assay buffer was made of 50 mM Tris. HCl (pH 7.5), 125 mM NaCl, 10 mM MgCl2, 5 mM DTT, and 100 μg/mL albumin.

The target of assay [13] is Human topo IIß (Homo sapiens, UniProt Q02880). The experiment in a line: Human topo IIß decatenation assay. It is filed as biochemical. As to the method: as §1
[14] abbreviates: ATCC19606, WT, Supplementary Table 4, read-out: MIC 90 in (μg/mL), A. baumannii ATCC 19606 (WT).
[15] abbreviates: ATCC19606, read-out: MIC 90 in (μg/mL), resistant mutant colony 3.
[16] abbreviates: ATCC19606, read-out: MIC 90 in (μg/mL), resistant mutant colony 5.
Where [17] appears, read: ATCC19606, read-out: MIC 90 in (μg/mL), resistant mutant colony 1.
[18] abbreviates: ATCC19606, read-out: MIC 90 in (μg/mL), resistant mutant colony 2.
Setting [19] is: ATCC19606, read-out: MIC 90 in (μg/mL), resistant mutant colony 4.

In brackets after ≈: the same amount, converted by molar mass. Where two headings read alike, the source gives them in different places.

With `CC1(C)S[C@@H]2[C@H](NC(=O)[C@H](N)c3ccccc3)C(=O)N2[C@H]1C(=O)O` [Ampicillin], the MIC in assay [1] came out at 5 µg/mL (≈ 14.3 µM); in assay [2] it was 5 µg/mL (≈ 14.3 µM); in assay [3] it was 2.5 µg/mL (≈ 7.15 µM); in assay [4] it was 3.3 µg/mL (≈ 9.44 µM); in assay [5] it was 4.2 µg/mL (≈ 12 µM); in assay [6], 4.2 µg/mL (≈ 12 µM). For the same compound, in assay [7], the MIC is 5 µg/mL (≈ 14.3 µM).
Regarding `C[C@H]1COc2c(N3CCN(C)CC3)c(F)cc3c(=O)c(C(=O)O)cn1c23` [Levofloxacin], the half-inhibitory concentration (IC50) (commonly the concentration that inhibits the measured activity by half) in [8] stood at 0.39 µM; in [9] it was 13 µM. Further, the MIC in assay [1] came out at 0.03 µg/mL (≈ 0.083 µM); in assay [2], 0.13 µg/mL (≈ 0.36 µM); in [3], 0.02 µg/mL (≈ 0.0553 µM); in [4], 0.25 µg/mL (≈ 0.692 µM); in [5] it was 0.02 µg/mL (≈ 0.0553 µM); in assay [6], 0.08 µg/mL (≈ 0.221 µM). Also, the MIC in assay [7] amounted to 0.04 µg/mL (≈ 0.111 µM).
Turning to `C[C@@H](O)[C@H]1C(=O)N2C(C(=O)O)=C(S[C@@H]3CN[C@H](C(=O)N(C)C)C3)[C@H](C)[C@H]12` [Meropenem], the MIC90 in [10] (setting [14]) stood at 0.3 µg/mL (≈ 0.782 µM); in assay [11] (setting [15]), 0.15 µg/mL (≈ 0.391 µM); in assay [11] (setting [16]) it was 0.6 µg/mL (≈ 1.56 µM).
Regarding `CO[C@@H]1[C@@H](OC(N)=O)[C@@H](O)[C@H](Oc2ccc3c(O)c(NC(=O)c4ccc(O)c(CC=C(C)C)c4)c(=O)oc3c2C)OC1(C)C` [Novobiocin], the MIC90 in [10] (setting [14]) came to 10 µg/mL (≈ 16.3 µM).
Consider `CO[C@H]1/C=C/O[C@@]2(C)Oc3c(C)c(O)c4c(O)c(c(/C=N/N5CCN(C)CC5)c(O)c4c3C2=O)NC(=O)/C(C)=C\C=C\[C@H](C)[C@H](O)[C@@H](C)[C@@H](O)[C@@H](C)[C@H](OC(C)=O)[C@@H]1C` [Rifampicin], for which the MIC90 was determined as 2.5 µg/mL (≈ 3.04 µM) in [10] (setting [14]) and 1.25 µg/mL (≈ 1.52 µM) in assay [11] (setting [17]).
With `CC[C@H]1OC(=O)[C@@](C)(F)C(=O)[C@H](C)[C@@H](O[C@@H]2O[C@H](C)C[C@H](N(C)C)[C@H]2O)[C@](C)(OC)C[C@@H](C)C(=O)[C@H](C)[C@H]2N(CCCCn3cc(-c4cccc(N)c4)nn3)C(=O)O[C@]12C` [Solithromycin], the MIC90 in assay [10] (ATCC19606, read-out: MIC 90 in (μg/mL), A. baumannii ATCC 19606 (WT)) was determined as 2.5 µg/mL (≈ 2.96 µM); in assay [11] (setting [17]) it was 5 µg/mL (≈ 5.92 µM); in [11] (setting [18]), 2.5 µg/mL (≈ 2.96 µM); in assay [11] (setting [15]), 2.5 µg/mL (≈ 2.96 µM); in [11] (setting [19]), 5 µg/mL (≈ 5.92 µM); in assay [11] (setting [16]) it was 2.5 µg/mL (≈ 2.96 µM).
With `COc1cc([C@@H]2c3cc4c(cc3[C@@H](O[C@@H]3O[C@@H]5CO[C@@H](c6cccs6)O[C@H]5[C@H](O)[C@H]3O)[C@H]3COC(=O)[C@H]23)OCO4)cc(OC)c1O` [Teniposide], the results for the IC50 in assay [12] (read-out: IC50 Human topo IIα decatenation) and in assay [13] were 18 ± 5 µM and 92 µM, respectively.
On to `CN(C)[C@@H]1C(O)=C(C(N)=O)C(=O)[C@@]2(O)C(O)=C3C(=O)c4c(O)cccc4[C@@](C)(O)[C@H]3C[C@@H]12` [Tetracycline], for which the MIC90 in assay [10] (setting [14]) stood at 0.3 µg/mL (≈ 0.675 µM); in assay [11] (setting [17]) it was 0.6 µg/mL (≈ 1.35 µM); in assay [11] (setting [18]), 0.6 µg/mL (≈ 1.35 µM); in [11] (setting [15]), 0.6 µg/mL (≈ 1.35 µM); in assay [11] (setting [19]) it was 0.6 µg/mL (≈ 1.35 µM); in assay [11] (setting [16]), 0.6 µg/mL (≈ 1.35 µM).
Take `C[C@@H]1CN2c3c(cc4c(N5C(=O)OC[C@@H]5C)noc4c3F)CC3(C(=O)NC(=O)NC3=O)[C@H]2[C@H](C)O1` [Zoliflodacin]: the half-inhibitory concentration (IC50) in assay [8] was 0.8 µM; in assay [9], 27 ± 12 µM; in assay [12], greater than 200 µM.
